From patent US8716302B2, “Compounds for inducing cellular apoptosis” (Queen Mary & Westfield College, priority 2009, dated 2014)
“And” between values parts separate entries of the source, which are not always exact repeats. Equal values may be shown once. Read-outs that look alike come from different tables or passages of the source.

Columns and labels:
[1] = test system: DoHH2 (lymphoma) cell line; assay: DiOC6(3) flow evaluation of cell viability and apoptosis, DoHH2 (lymphoma) cell line; assay type: cell-based, human; settings: for Percentage Cell Viability: DoHH2 cells, 50 μM; for cytotoxicity at 50 µM / viability at 50 µM: Homo sapiens, DOHH-2, DoHH2 cells
Description: DiOC6(3) flow evaluation of cell viability and levels of apoptosis was carried out at 10 and 50 μm concentrations. For each entry in FIG. 1, % apoptosis is on the left and % viable is on the right.
Measurement of Mitochondrial Membrane Potential depolarisation and mitochondrial permeability transition (MPT). Cells were incubated for 20 minutes at 37° C. in the dark with the cationic lipophillic (amphipathic) probe 3,3′-dihexyloxacarbocyanine iodide, DiOC6(3) (80 nM), then counter stained for 10 minutes with propidium iodide (20 μg/ml). DiOC6(3) is sequestered within the mitochondrial matrix due to the inner membrane potential (Δψm), according to the Nernst equation, dissipation leading to a reduction in mitochondrial retention and decreased cellular DiOC6(3) fluorescence. Collapse of Δψm was prevented by incubating cells for 30 minutes with 50 μM bongkrekic acid. Events with increased propidium iodide fluorescence were subtracted, by gating, from the DiOC6(3) histograms to eliminate dead cells, with loss of plasma membrane integrity. Dose-response curves used the calculated proportion of DiOC6(3)low, cells as the dependent variable on the ordinate. To measure MPT directly, cells were incubated with 1 μM calcein AM for 30 minutes, followed by 1 mM […] cobalt. Cobalt quenches calcein fluorescence, but cannot traverse an intact inner mitochondrial membrane to enter the mitochondrial matrix, to which calcein equilibrates. Opening of the PTPC allows cobalt to enter, reducing calcein fluorescence.
The Lymphoma cell line (DoHH2) was treated with PK11195 and various compounds of the invention at doses of 10 and 50 μmol concentrations. Levels of cell viability and apoptosis were measured by DiOC6 flow evaluation. DiOC6 is a fluorescent dye which acts as a surrogate marker of mitochondrial depolarisation. Uptake of DiOC6 and consequent fluorescence is a measure of opening of the permeability transition pore complex (PTPC).
The following tables set out % viability and % apoptosis results seen for treatment of DoHH2 cells with certain compounds of the invention at a dosage of 50 μM, in comparison with untreated cells. The assay procedure used was as described above in respect of “Treatment of DoHH 2 (Lymphoma) Cell Line”.

DoHH2 cells = assay: Superoxide purging with MnTBAP, apoptosis in DoHH2 cells; assay type: cell-based, human; settings: with and without ROS scavenger MnTBAP
Description: For each entry in FIG. 2, DAPI viable is on the left and DAPI non viable is on the right.
O^2-• was detected by incubating cells for 15 minutes in 5 μM dihydroethidium, which is oxidized to ethidium. To test the effect of O^2-• […] on O^2-• generation, cells were treated with 100 μM MnTBAP for 45 minutes. Hydrogen peroxide was detected by loading cells for 30 minutes with 5 μM CM-H2DCFDA, and its formation inhibited by preincubation with 500 U/ml catalase for 30 minutes. Dose-response curves for CM-H2DCFDA used the calculated proportion of CM-H2DCFDAhigh cells as the dependent variable.
DoHH2 cells were exposed to AAW-001, AAW-0014 and PK11195 in the presence and absence of the mitochondrial reactive oxygen species (ROS) scavenger MnTBAP.

[2] = test system: human lymphoma DoHH2 cell line xenograft; assay: DoHH2 xenograft NOD/SCID mice; assay type: in vivo; settings: for mice alive at 10 weeks: cohorts of ten mice
Description: NOD/SCID mice xenografted with the human lymphoma DoHH2 cell line were treated two weeks post inoculation with the human B cell lymphoma cell line DoHH2. There were three cohorts of ten mice. For two cohorts, treatment consisted of 50 microgram intraperitoneal (IP) doses twice weekly for three weeks of PK11195 or AAW-0014, respectively. The third cohort was treated with 200 microlitres of saline twice weekly over a 3 week period. The mice were then observed for up to six weeks. All of the saline treated mice were dead due to disease at 10 weeks. […] All of the AAW-0014 treated mice were alive at 10 weeks showing less than 20% splenic involvement, including 2 mice with no detectable disease.

[3] = average of repeats, read-out: Percentage Cell Apoptosis, Averages
[4] = average of repeats, read-out: Percentage Cell Viability, Averages
[5] = individual repeats, read-out: Percentage Cell Apoptosis
[6] = individual repeats, read-out: Percentage Cell Viability
[7] = 50 microgram IP twice weekly for three weeks
[8] = at 10 weeks, 50 microgram IP twice weekly for three weeks

| Structure (SMILES) | cytotoxicity at 50 µM [1, 3] [%] | viability at 50 µM [1, 4] [%] | cytotoxicity at 50 µM [1, 5] [%] | viability at 50 µM [1, 6] [%] | further results |
| --- | --- | --- | --- | --- | --- |
| CC(C)NC(=O)c1cc2ccccc2c(-c2c(Cl)cccc2Cl)n1 [CO-AAW00018] | 24.1 | 82 | 25.6 | 84.8 | Percentage Cell Viability ([1]; individual repeats, listed as 18, 50 µM): 79.2% |
| CCCCNC(=O)c1cc2ccccc2c(-c2ccccc2Cl)n1 [CO-AAW00022] | 65.4 | 28.4 | 62.9 | 37.4 | Percentage Cell Viability ([1]; individual repeats, listed as 22, 50 µM): 19.4% |
| CC(C)NC(=O)c1cc2ccccc2c(-c2ccccc2Cl)n1 [CO-AAW0009] | 32.4 | 69.9 | – | – | Percentage Cell Viability ([1]; individual repeats, listed as 9, 50 µM): 48.8% and 90.5% |
| CCCCC(=O)Nc1cc2c(c(-c3ccccc3Cl)c1)CCN(C(=O)C(F)(F)F)C2 [CO-AAW00030, pentanoic acid [5-(2-chlorophenyl)-2-(2,2,2-trifluoro-acetyl)-1,2,3,4-tetrahydro-isoquinolin-7-yl]amide] | 61.2 | 64.3 | 61.2 | 64.3 | – |
| CC(C)C(=O)Nc1cc2c(c(-c3ccccc3Cl)c1)CCN(C(=O)C(F)(F)F)C2 [CO-AAW0001, N-[5-(2-chloro-phenyl)-2-(2,2,2-trifluoro-acetyl)-1,2,3,4-tetrahydro-isoquinolin-7-yl]-isobutyramide] | 52.8 | 59.7 | – | – | Percentage Cell Viability ([1]; individual repeats, listed as 1, 50 µM): 73.8% and 67.7% and 47.9% and 62.5% and 48.0% and 52.8% and 52.9% and 48.5% and 68.4% and 65.4% |
| CCCCC(=O)Nc1nc2c(c(-c3ccccc3Cl)n1)CN(Cc1ccccc1)CC2 [CO-AAW00014, pentanoic acid [6-benzyl-4-(2-chloro-phenyl)-5,6,7,8-[4,3-d]pyrimidin-2-yl]-amide] | 65.5 | 53.1 | – | – | ability to induce apoptosis in the presence of MnTBAP (DoHH2 cells): inhibited by MnTBAP; drug related toxicities [2, 7]: No major drug related toxicities were observed; splenic involvement [2, 8]: less than 20%; mice with no detectable disease ([2]; at 10 weeks, of ten mice): 2; mice alive at 10 weeks [2, 7]: All; Percentage Cell Viability ([1]; individual repeats, listed as 14, 50 µM): 68.8% and 42.3% and 39.4% and 65.8% and 51.8% and 54.3% and 49.6% |
| CC(C)C(=O)Nc1cc2c(c(-c3ccccc3Cl)c1)CCN(C(=O)c1ccccc1)C2 [CO-AAW00025, N-[2-Benzoyl-5-(2-chloro-phenyl)-1,2,3,4-tetrahydroisoquinolin-7-yl]2-methylpropanamide] | 15.4 | 67.6 | 19.7 | – | Percentage Cell Viability ([1]; individual repeats, listed as 25, 50 µM): 56.3% and 78.8% |
| CCCC(=O)N1CCc2c(cc([N+](=O)[O-])cc2-c2ccccc2Cl)C1 [CO-AAW00017, 1-[5-(2-chlorophenyl)-7-nitro-1,2,3,4-tetrahydroisoquinolin-2-yl]butan-1-one] | 49.2 | 71.3 | 43 | 74.2 | Percentage Cell Viability ([1]; individual repeats, listed as 17, 50 µM): 68.4% |
| CCC(C)C(=O)Nc1cc2ccccc2c(-c2ccccc2Cl)n1 (centres unmarked) [CO-AAW0008] | 39.2 | 67.9 | 48.8 | – | Percentage Cell Viability ([1]; individual repeats, listed as 8, 50 µM): 54.1% and 81.7% |
| CNC(=O)c1cc2ccccc2c(-c2ccccc2Cl)n1 [CO-AAW00020] | 17.3 | 75.7 | 17.1 | 72.7 | Percentage Cell Viability ([1]; individual repeats, listed as 20, 50 µM): 78.7% |
| O=C(Nc1nc2c(c(-c3ccccc3Cl)n1)CN(Cc1ccccc1)CC2)c1cccc(Cl)c1Cl [CO-AAW00016, N-[6-benzyl-4-(2-chlorophenyl)-5H,6H,7H,8H-pyrido[4,3-d]pyrimidin-2-yl]-2,3-dichlorobenzamide] | 33.5 | 77.5 | 33.4 | 78.5 | Percentage Cell Viability ([1]; individual repeats, listed as 16, 50 µM): 76.5% |
| CCC(C)N(C)C(=O)c1cc2ccccc2c(-c2ccccc2Cl)n1 (centres unmarked) [PK11195, 1-(2-chlorophenyl)-N-methyl-N-(1-methylpropyl)-3-isoquinolinecarboxamide, reference compound] | – | – | – | – | disease on splenic assessment on culling [2, 8]: moderate levels of disease; mice alive at 10 weeks [2, 7]: Five of the ten |
| CC(C)C(=O)Nc1cc2ccccc2c(-c2ccccc2Cl)n1 [CO-AAW0007] | 26.1 | 76.1 | – | – | Percentage Cell Viability ([1]; individual repeats, listed as 7, 50 µM): 63.9% and 88.2% |
